According to patent US11180518B2, “Phenyl-heterocycle-phenyl derivatives for use in the treatment or prevention of melanoma” (MAX-PLANCK-GESELLSCHAFT ZUR FÖRDERUNG DER WISSENSCHAFTEN …, priority 2017, dated 2021):
“Also recorded” adds a separate entry of the source. Where two headings read alike, the source gives them in different places.

How the values were obtained:
[1] = system: high-level α-synuclein expressing cell lines WM983-B; experiment: Initial screen of sixteen compounds from the DPP library; assay type: cell-based, human
[2] = system: WM1158 melanoma cells; experiment: Mitochondrial membrane potential (MitoTracker Red CMXRos); assay type: cell-based, human; conditions: 10 μM, only after 48 hr
Description: (§1) Mitochondrial membrane potential. Melanoma cell lines WM983-B, SK-MEL-5 and WM1158 were treated with anle138b or received DMSO only for 24 or 48 hr. Prior to fixation with 3.7% PFA, the cells were incubated with 200 nM MitoTracker Red CMXRos (Thermo Fisher Scientific, Inc.) for 30 min at 37° C. Confocal image stacks were captured with a 63×NA 1.2 Apochromat water immersion lens on a Zeiss LSM 510 Meta confocal microscope in fluorescence and transmission modes.

[3] = system: SK-MEL-5 melanoma cells; experiment: as above; assay type: cell-based, human; conditions: single 10 μM dose, as early as 24 hr
Description: as §1

[4] = system: WM983-B melanoma cells; experiment: as above; assay type: cell-based, human; conditions: single 10 μM dose, as early as 24 hr
Description: as §1

[5] = Pharmacokinetic (HPLC) analysis of resected xenograft tumors; assay type: in vivo, nude mice; conditions: female, CAnN.Cg-Foxn1nu/Crl nude, mouse, tumor (WM983-B human melanoma xenograft, oral, 2 g of anle138b/kg of food pellets), food pellets with 2 g/kg for seven days, read-out: level in the tumor
Source text: To determine whether the DPP compound, anle138b, when administered systemically to human MGP melanoma cells grown as subcutaneous tumors in nude mice, would reach the tumors, we performed the following study. A nude mouse, bearing high-level α-synuclein-expressing (MGP) WM983-B human melanoma xenografts on its lower right and on its lower left dorsal side, received, for seven days, food pellets mixed with anle138b. A second nude mouse, also bearing WM983-B tumors on its lower right as well as on its lower left dorsal side, received, for seven days, the same type of food pellets not containing anle138b. After the mice were sacrificed, we performed the following analyses on the post-mortem resected and thereafter, cryopreserved tumors. […]
Cryopreserved WM983-B human melanoma xenograft tissues were brought to 4° C. prior to their transfer into Precellys CKMix—2 mL tissue homogenizing tubes, and homogenization in 0.5 to 1.00 ml acetonitrile using a Precellys Evolution Super homogenizer (Bertin Instruments, Montigny-le-Bretonneux, France). […] The effluent was monitored for UV absorption at 260 nm. Samples were quantitated using peak area ratio of compounds to external standard.

[6] = in vivo; cited from earlier work
[7] = system: WM983-B melanoma cells; experiment: LDH cytotoxicity analysis; conditions: 2, 5, 10 or 15 μM for 96 hr, replenishment at 48 hr
Description: (§2) Replicates of WM983-B as well as WM852 melanoma cells were plated at 3×10^5 cells per well in 35 mm tissue culture plates. Twenty-four hours later, the cells were rinsed three times with serum-free medium, followed by addition of increasing doses of anle138b or DMSO only. Forty-eight hours later, the cell culture medium was removed, followed by addition of equivalent doses of anle138b or DMSO only in serum-free medium. Culture medium, collected 48 hr later, was centrifuged to pellet and remove cellular debris. Using a PHERAstar FS microplate reader (BMG LABTECH GmbH, Ortenberg, Germany) and spectrophotometric absorbance measurement, the release of LDH enzyme activity into the tissue culture medium was determined with an LDH cytotoxicity assay kit (Roche Diagnostics Deutschland GmbH, Mannheim, Germany). […] Cells from the DMSO controls were trypsinized, counted, and lysed according to the manufacturer's instructions.

[8] = system: WM1158 melanoma cells; experiment: Melanoma cell proliferation analysis; assay type: cell-based, human
Source text: To assess the possible impact of anle138b as well as anle138c on the different melanoma cell lines, WM983-A, WM983-B and SK-MEL-5, we treated them with increasing doses of either compound, dissolved in dimethyl sulfoxide (DMSO), and added to serum-free culture medium. […] We also observed that treatment with anle138b caused a more rapid morphological change than anle138c. To determine whether the effect of the two anle compounds was related to the amount of α-synuclein produced by the cells, we compared the proliferation of the (VGP) WM983-A high-level and the (RGP/VGP) WM1158 low-level α-synuclein-producing melanoma cells over a period of 96 hr, with replenishment of each anle compound at 48 hr (FIGS. 8A and B).
10 or 30 mM stock solutions of anle138b or anle138c were made in DMSO. Since anle138b as well as anle138c bind strongly to FBS, melanoma cells, plated for 24 hr in tissue-culture medium containing 10% FBS, were rinsed three times with serum-free medium prior to addition of anle138b, anle138c, or an equivalent volume of DMSO only in serum-free medium. Forty-eight hours later, the cell culture medium was removed, followed by addition of an equivalent dose of anle138b or anle138c, or DMSO only in serum-free culture medium. […] Proliferation of melanoma cells that had received DMSO only, or were treated with anle138b was determined by counting the cells with a hemocytometer.

[9] = system: WM852 melanoma cells; experiment: LDH cytotoxicity analysis; conditions: 2, 5, 10 or 15 μM for 96 hr, replenishment at 48 hr
Description: as §2

[10] = system: WM983-B human melanoma xenografts; experiment: Melanoma xenograft study: H&E and LC3 staining of tumor sections; assay type: in vivo, nude mice; conditions: food pellets with compound for seven days; vs control tumor
Source text: To determine whether the DPP compound, anle138b, when administered systemically to human MGP melanoma cells grown as subcutaneous tumors in nude mice, would reach the tumors, we performed the following study. A nude mouse, bearing high-level α-synuclein-expressing (MGP) WM983-B human melanoma xenografts on its lower right and on its lower left dorsal side, received, for seven days, food pellets mixed with anle138b. A second nude mouse, also bearing WM983-B tumors on its lower right as well as on its lower left dorsal side, received, for seven days, the same type of food pellets not containing anle138b. After the mice were sacrificed, we performed the following analyses on the post-mortem resected and thereafter, cryopreserved tumors.
4-week-old, female nude mice (CAnN.Cg-Foxn1nu/Crl) (Charles River Laboratories, Research Models and Services, Germany GmbH, Sulzfeld, Germany) were injected subcutaneously on their lower right as well as lower left dorsal side with WM983-B (MGP) human melanoma cells (1×10^7 cells per side). When the tumors had reached a size of 2.3 to 3.0 mm in any direction, the normal food pellet diet of one of the animals was replaced with food pellets mixed with anle138b [2 g of anle138b/kg of food pellets] […]

For `Brc1cccc(-c2cc(-c3ccc4c(c3)OCO4)n[nH]2)c1` [anle138b, 5-(3-Bromophenyl)-3-(3,4-methylenedioxyphenyl)-1H-pyrazole], the “effect on WM983-B cells in initial screen” value [1] was “significantly affected; also recorded: strongest and most rapid effect”, the mitochondrial membrane potential [2] was “some reduction” and the mitochondrial membrane potential [3] was “significantly reduced”. The mitochondrial membrane potential [4] was “significantly reduced”, the concentration at 7 days ([5]; tumor from left dorsal side (218 mg)) was 110 µM and the concentration at 7 days ([5]; tumor from right dorsal side (57 mg)) was 125 µM. For the same compound, the “oral bioavailability and blood-brain-barrier penetration” value [6] was “excellent”, the “cell killing (LDH release)” value [7] was “strong killing that reached a maximum at a 10 μM dose” and the proliferation ([8]; over 96 hr, replenishment at 48 hr) was “reduced proliferation only after 48 hr”. For the same compound, the “recovery of proliferation after removal of compound” value ([8]; removal at 96 hr, fresh culture medium containing serum) was “able to recover proliferation normally”, the “number of cells killed (LDH release) compared with WM983-B” value [9] was “significantly lower” and the “LC3-positive cells in tumor sections” value [10] was “more LC3-positive cells”. For the same compound, the “morphology of tumor cells (H&E)” value [10] was “arranged in a scattered pattern with focally pronounced disturbances in the tissue's architecture”.
